Data taken from article PMC12931196, “Vm–MSI: a Vancomycin–Antimicrobial Peptide Conjugate Combating Resistant Bacteria and Broadening the Antimicrobial Spectrum” (Advanced Science, 2025).
Where two headings read alike, the source gives them in different places. Ends that are not written are not given here.

Molecule | MIC (S. aureus 15772; 15772, 18 h) | MIC (P. aeruginosa ATCC27853; ATCC27853, 18 h) | MIC (E. coli ATCC25922; ATCC25922, 18 h) | MIC (A. baumannii ATCC19606; ATCC19606, 18 h) | MIC (S. typhimurium ATCC14028; ATCC14028, 18 h) | MIC (MRSA ATCC43300; ATCC43300, 18 h) | MIC (S. aureus CMCC26003; CMCC26003, 18 h) | MIC (K. pneumoniae 9883; 9883, 18 h) | MIC (VRSA 52; 52, 18 h) | MIC (S. aureus ATCC29213; ATCC29213, 18 h) | MIC (S. aureus 15192; 15192, 18 h) | MIC (E. faecalis ATCC29212; ATCC29212, 18 h) | MIC (VRSA 11; 11, 18 h) | also measured
CC[C@H](C)[C@H](NC(=O)[C@H](CCCNC(=N)N)NC(=O)[C@H](CCCNC(=N)N)NC(=O)[C@@H](N)CSC1CC(=O)N(CC2CCC(C(=O)N(C)[C@H](CC(C)C)C(=O)N[C@H]3C(=O)N[C@@H](CC(N)=O)C(=O)N[C@H]4C(=O)N[C@H]5C(=O)N[C@H](C(=O)N[C@H](C(=O)O)c6cc(O)cc(O)c6-c6cc5ccc6O)[C@H](O)c5ccc(c(Cl)c5)Oc5cc4cc(c5O[C@@H]4O[C@H](CO)[C@@H](O)[C@H](O)[C@H]4O[C@H]4C[C@](C)(N)[C@H](O)[C@H](C)O4)Oc4ccc(cc4Cl)[C@H]3O)CC2)C1=O)C(=O)N[C@@H](CCCNC(=N)N)C(=O)N1CCC[C@H]1C(=O)N[C@@H](CCCNC(=N)N)C(=O)N1CCC[C@H]1C(=O)N1CCC[C@H]1C(=O)N[C@@H](CCCNC(=N)N)C(=O)N[C@@H](CC(C)C)C(=O)N1CCC[C@H]1C(=O)N[C@@H](CCCNC(=N)N)C(=O)N1CCC[C@H]1C(=O)N[C@@H](CCCNC(=N)N)C(=O)N1CCC[C@H]1C(=O)N[C@@H](CCCNC(=N)N)C(=O)N1CCC[C@H]1C(=O)O (some centres unmarked) [Vm-Bac] | 2.34(0.59) µg mL^−1 | >100(>25.4) µg mL^−1 | 18.75(4.76) µg mL^−1 | 18.75(4.76) µg mL^−1 | 37.5(9.52) µg mL^−1 | 2.34(0.59) µg mL^−1 | 0.78(0.20) µg mL^−1 | >100(>25.4) µg mL^−1 | 18.75(4.76) µg mL^−1 | 2.34(0.59) µg mL^−1 | 1.17(0.30) µg mL^−1 | 18.75(4.76) µg mL^−1 | 18.75(4.76) µg mL^−1 | –
CC[C@H](C)[C@H](NC(=O)[C@@H](N)CSC1CC(=O)N(CC2CCC(C(=O)N(C)[C@H](CC(C)C)C(=O)N[C@H]3C(=O)N[C@@H](CC(N)=O)C(=O)N[C@H]4C(=O)N[C@H]5C(=O)N[C@H](C(=O)N[C@H](C(=O)O)c6cc(O)cc(O)c6-c6cc5ccc6O)[C@H](O)c5ccc(c(Cl)c5)Oc5cc4cc(c5O[C@@H]4O[C@H](CO)[C@@H](O)[C@H](O)[C@H]4O[C@H]4C[C@](C)(N)[C@H](O)[C@H](C)O4)Oc4ccc(cc4Cl)[C@H]3O)CC2)C1=O)C(=O)N[C@@H](CC(C)C)C(=O)N[C@@H](CCCNC(=N)N)C(=O)N[C@@H](Cc1c[nH]c2ccccc12)C(=O)N1CCC[C@H]1C(=O)N[C@@H](Cc1c[nH]c2ccccc12)C(=O)N[C@@H](Cc1c[nH]c2ccccc12)C(=O)N1CCC[C@H]1C(=O)N[C@@H](Cc1c[nH]c2ccccc12)C(=O)N[C@@H](CCCNC(=N)N)C(=O)N[C@@H](CCCNC(=N)N)C(=O)N[C@@H](CCCCN)C(N)=O (some centres unmarked) [Vm-Omi] | >100(>28) µg mL^−1 | >100(>28) µg mL^−1 | >100(>28) µg mL^−1 | >100(>28) µg mL^−1 | >100(>28) µg mL^−1 | 4.69(1.32) µg mL^−1 | 0.78(0.22) µg mL^−1 | >100(>28) µg mL^−1 | 75(21.13) µg mL^−1 | 1.17(0.33) µg mL^−1 | 0.78(0.22) µg mL^−1 | >100(>28) µg mL^−1 | 75(21.13) µg mL^−1 | –
CC(C)C[C@H](NC(=O)[C@H](Cc1ccc(O)cc1)NC(=O)[C@H](Cc1c[nH]cn1)NC(=O)[C@@H](NC(=O)[C@H](CC(C)C)NC(=O)[C@H](C)NC(=O)[C@H](C)NC(=O)[C@H](CCCCN)NC(=O)CNC(=O)[C@@H](NC(=O)[C@H](Cc1c[nH]cn1)NC(=O)[C@H](CCCCN)NC(=O)CNC(=O)[C@@H](NC(=O)[C@H](Cc1c[nH]cn1)NC(=O)[C@H](C)NC(=O)[C@H](C)NC(=O)[C@H](CCCCN)NC(=O)[C@H](CCCCN)NC(=O)[C@H](Cc1ccccc1)NC(=O)[C@H](Cc1ccccc1)NC(=O)[C@H](CO)NC(=O)CNC(=O)[C@H](Cc1c[nH]c2ccccc12)NC(=O)CNC(=O)[C@@H](N)CSC1CC(=O)N(CC2CCC(C(=O)N(C)[C@H](CC(C)C)C(=O)N[C@H]3C(=O)N[C@@H](CC(N)=O)C(=O)N[C@H]4C(=O)N[C@H]5C(=O)N[C@H](C(=O)N[C@H](C(=O)O)c6cc(O)cc(O)c6-c6cc5ccc6O)[C@H](O)c5ccc(c(Cl)c5)Oc5cc4cc(c5O[C@@H]4O[C@H](CO)[C@@H](O)[C@H](O)[C@H]4O[C@H]4C[C@](C)(N)[C@H](O)[C@H](C)O4)Oc4ccc(cc4Cl)[C@H]3O)CC2)C1=O)C(C)C)C(C)C)[C@@H](C)O)C(N)=O (some centres unmarked) [Vm-Ple] | – | – | – | – | – | – | – | – | – | – | – | – | – | MIC (S. aureus 15772; S. aureus 15772, MH broth, 37 °C, 18 h, OD600): 2.34(0.52) µg mL^−1; MIC (P. aeruginosa ATCC27853; P. aeruginosa ATCC27853, MH broth, 37 °C, 18 h, OD600): >100(>22.33) µg mL^−1; MIC (E. coli ATCC25922; E. coli ATCC25922, MH broth, 37 °C, 18 h, OD600): 4.69(1.05) µg mL^−1; MIC (A. baumannii ATCC19606; A. baumannii ATCC19606, MH broth, 37 °C, 18 h, OD600): 2.34(0.52) µg mL^−1; MIC (S. typhimurium ATCC14028; S. typhimurium ATCC14028, MH broth, 37 °C, 18 h, OD600): 75(16.75) µg mL^−1; MIC (MRSA ATCC43300; MRSA ATCC43300, MH broth, 37 °C, 18 h, OD600): 4.69(1.05) µg mL^−1; MIC (S. aureus CMCC26003; S. aureus CMCC26003, MH broth, 37 °C, 18 h, OD600): 0.78(0.17) µg mL^−1; MIC (K. pneumoniae 9883; K. pneumoniae 9883, MH broth, 37 °C, 18 h, OD600): 37.5(8.37) µg mL^−1; MIC (VRSA 52; VRSA 52, MH broth, 37 °C, 18 h, OD600): 9.38(2.10) µg mL^−1; MIC (S. aureus ATCC29213; S. aureus ATCC29213, MH broth, 37 °C, 18 h, OD600): 4.69(1.05) µg mL^−1; MIC (S. aureus 15192; S. aureus 15192, MH broth, 37 °C, 18 h, OD600): 2.34(0.52) µg mL^−1; MIC (E. faecalis ATCC29212; E. faecalis ATCC29212, MH broth, 37 °C, 18 h, OD600): 18.75(4.19) µg mL^−1; MIC (VRSA 11; VRSA 11, MH broth, 37 °C, 18 h, OD600): 9.38(2.10) µg mL^−1
GWGSFFKKAAHVGKHVGKAALTHYL-NH2 [Pleurecidin] | 9.38(3.46) µg mL^−1 | 9.38(3.46) µg mL^−1 | 2.34(0.86) µg mL^−1 | 9.38(3.46) µg mL^−1 | 18.75(6.92) µg mL^−1 | 2.34(0.86) µg mL^−1 | 1.17(0.43) µg mL^−1 | 4.69(1.73) µg mL^−1 | 9.38(3.46) µg mL^−1 | 9.38(3.46) µg mL^−1 | 9.38(3.46) µg mL^−1 | 4.69(1.73) µg mL^−1 | 4.69(1.73) µg mL^−1 | –
RRIRPRPPRLPRPRPRP [Bac-7] | 75(34.53) µg mL^−1 | >100(>46.0) µg mL^−1 | 18.75(8.63) µg mL^−1 | >100(>46.0) µg mL^−1 | 75(34.53) µg mL^−1 | 9.38(4.32) µg mL^−1 | 37.5(17.27) µg mL^−1 | 9.38(4.32) µg mL^−1 | 75(34.53) µg mL^−1 | >100(>46.0) µg mL^−1 | 75(34.53) µg mL^−1 | 18.75(8.63) µg mL^−1 | 75(34.53) µg mL^−1 | –
